Test systems include LXFL 529 NSCLC; KM20L2 colon; M19-MEL melanoma; MCF7 breast; DU-145 prostate; MDA-MB-231 breast; HS 578T breast; T-47D breast; BT-549 breast; DMS 273 small cell lung.
Assay in all cases: NCI tumour cell line growth inhibition, 48 h

Where “and” joins values, the source holds several entries; their conditions need not be identical. Equal values may be shown once.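 Interpolation was linear, between the two tested concentrations surrounding the appropriate level; five concentrations were tested over 48 hours in 96-well plates. Here, GI50 denotes the concentration required for 50% inhibition of growth. TGI is the concentration that stops growth completely.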

Regarding `CCOC(=O)C1=C(Nc2ccccc2)OC/C1=N\NC(=O)Cc1ccccc1`, the TGI with LXFL 529 NSCLC, in the experiment on KM20L2 colon and in the experiment on M19-MEL melanoma was over 50 µM throughout.

With `Fc1ccc(-c2nc(-c3nc4ccc(Cl)cc4[nH]3)cc3c2[nH]c2ccccc23)cc1`, the GI50 with MCF7 breast is 3.27 µM; in the experiment with DU-145 prostate, 3.41 µM; in the experiment with MDA-MB-231 breast it was 2.88 µM; in the experiment with HS 578T breast, 3.38 µM; with T-47D breast it was 2.68 µM; in the experiment with BT-549 breast it was 4.62 µM. Moreover, the TGI with MCF7 breast worked out at 16.6 µM; in the experiment with DU-145 prostate, 12 µM; in the experiment with MDA-MB-231 breast it was 13.6 µM; in the experiment on HS 578T breast it was 57 µM; in the experiment on T-47D breast it was 20.9 µM; with BT-549 breast, 18.7 µM.

On to `CCOc1ccc(Cc2nccc3cc(OCC)c(OCC)cc23)cc1OCC`, for which the GI50 in the experiment with MCF7 breast is 9.94 µM; with DU-145 prostate, 12.9 µM; with MDA-MB-231 breast, 4.02 µM; with HS 578T breast, 13.2 µM; in the experiment on T-47D breast it was 1.47 µM; in the experiment on BT-549 breast it was 5.16 µM. The TGI in the experiment with MCF7 breast was found to be 23.8 µM; in the experiment on DU-145 prostate, 31.8 µM; with MDA-MB-231 breast it was 25.9 µM; with HS 578T breast, 57.7 µM; with T-47D breast, 15 µM; with BT-549 breast it was 19.1 µM.

For `c1cncc(CNc2ccccc2-c2nnc(Nc3ccc4c(c3)OCO4)o2)c1`, the GI50 with MCF7 breast was 0.039 µM; in the experiment with DU-145 prostate it was 0.197 µM; with MDA-MB-231 breast, 0.343 µM; in the experiment with HS 578T breast, 0.0974 µM; in the experiment with T-47D breast, 0.22 µM; in the experiment on BT-549 breast, 0.604 µM. Besides, the TGI in the experiment with MCF7 breast, with DU-145 prostate, with MDA-MB-231 breast, in the experiment with HS 578T breast, in the experiment with T-47D breast and with BT-549 breast was over 100 µM in each case.

Turning to `CC(=O)Nc1ccc2nncnc2c1`, the TGI with MCF7 breast, with DU-145 prostate, with MDA-MB-231 breast, in the experiment on HS 578T breast, with T-47D breast and in the experiment on BT-549 breast was over 100 µM throughout.

Take `O=C1NC(=NCC(CO)c2ccccc2)S/C1=C\c1ccc2ncccc2c1` (configuration not stated): the GI50 was 12.4 µM in the experiment on MCF7 breast; 18.4 µM with DU-145 prostate; over 25 µM with MDA-MB-231 breast; 14.7 µM in the experiment with HS 578T breast; 25 µM in the experiment with T-47D breast; 13.3 µM with BT-549 breast. Moreover, the TGI with MCF7 breast, in the experiment on DU-145 prostate, in the experiment on MDA-MB-231 breast, in the experiment on HS 578T breast, in the experiment with T-47D breast and with BT-549 breast was over 25 µM in each case.

For the molecule `CC1=C(N2CC2)C(=O)C(CO)=C(N2CC2)C1=O`, the GI50 was 0.00487 µM in the experiment with MCF7 breast, 0.14 µM in the experiment on MDA-MB-231 breast and 0.139 µM in the experiment on HS 578T breast. For the same molecule, the TGI is 0.0938 µM and 0.0967 µM with MCF7 breast; 1.3 µM in the experiment on DU-145 prostate; 0.352 µM and 1.43 µM in the experiment with HS 578T breast; 0.529 µM in the experiment on T-47D breast; 1.95 µM in the experiment on BT-549 breast.

Regarding `CCCNc1nc(N(C)O)nc(N(C)O)n1`, the GI50 is 2.44 µM with MCF7 breast; 1.46 µM in the experiment with DU-145 prostate; 5.31 µM with MDA-MB-231 breast; 6.51 µM in the experiment with HS 578T breast; 3.9 µM with T-47D breast; 3.34 µM with BT-549 breast. The TGI was over 100 µM in the experiment on MCF7 breast; over 30.1 µM in the experiment on DU-145 prostate; over 100 µM with MDA-MB-231 breast; over 100 µM in the experiment with HS 578T breast; over 100 µM in the experiment with T-47D breast; over 29.9 µM with BT-549 breast.

Regarding `Cc1ccc2nc3c(Cl)cc(=O)cc-3sc2c1`, the results for the TGI in the experiment with LXFL 529 NSCLC, in the experiment on DMS 273 small cell lung and in the experiment on M19-MEL melanoma were 63.1 µM, 39.3 µM and 36 µM, respectively.

Take `C=C1CC[C@@H]2C(C)(C)[C@@H](O)CC[C@@]2(C)[C@@H]1COc1ccc2ccc(=O)oc2c1`: the GI50 in the experiment on MCF7 breast was 8.02 µM; in the experiment on DU-145 prostate, 17.3 µM; in the experiment on MDA-MB-231 breast, 15.4 µM; in the experiment on HS 578T breast, 15.4 µM; in the experiment with T-47D breast it was 5.81 µM; with BT-549 breast, 6.65 µM. Also, the TGI in the experiment with MCF7 breast is 24.7 µM; with DU-145 prostate, 48.2 µM; in the experiment with MDA-MB-231 breast, 31.8 µM; in the experiment on HS 578T breast, 49.5 µM; in the experiment with T-47D breast it was 32.5 µM; with BT-549 breast, 20.1 µM.

Regarding `O=C(c1cc(=O)c2ccc(O)cc2o1)c1ccc(Cl)cc1Cl`, the TGI in the experiment with KM20L2 colon is over 100 µM; in the experiment on DMS 273 small cell lung it was over 31.6 µM; with M19-MEL melanoma, over 100 µM.

For `Nc1nc(N)c2cc(CNc3ccc(Cl)c(Cl)c3)ccc2n1`, the GI50 was 0.775 µM in the experiment on MCF7 breast; 0.68 µM in the experiment with DU-145 prostate; 0.803 µM with MDA-MB-231 breast; 1.34 µM with HS 578T breast; 1.54 µM in the experiment with T-47D breast; 1.4 µM with BT-549 breast. For the same molecule, the TGI is 2.05 µM with MCF7 breast; 1.93 µM with DU-145 prostate; 2.16 µM with MDA-MB-231 breast; 3.02 µM in the experiment on HS 578T breast; 2.9 µM in the experiment with T-47D breast; 2.78 µM in the experiment on BT-549 breast.

On to `O=C(c1cc2ccccc2[nH]1)C(O)(c1cc2ccccc2[nH]1)c1cc2ccccc2[nH]1`, for which the TGI in the experiment on LXFL 529 NSCLC, in the experiment on KM20L2 colon and in the experiment on DMS 273 small cell lung was over 246 µM throughout.

For the molecule `CCN1CCN(CCOc2ccc(CNc3ccc4nc(CCC5CCCCC5)[nH]c4c3)cc2)CC1`, the GI50 was 1.8 µM in the experiment on MCF7 breast; 3.91 µM in the experiment with DU-145 prostate; 1.6 µM in the experiment on MDA-MB-231 breast; 1.61 µM with HS 578T breast; 1.93 µM in the experiment with T-47D breast; 1.58 µM in the experiment on BT-549 breast. In addition, the TGI with MCF7 breast is 5.84 µM; in the experiment on DU-145 prostate, 14 µM; in the experiment on MDA-MB-231 breast, 3.11 µM; with HS 578T breast it was 4.85 µM; with T-47D breast, 5.41 µM; in the experiment on BT-549 breast, 3.04 µM.

For the origin of these results see PubChem BioAssay (NCI).
